This is an account of results in patent US20260193271A1, “PAN-KRAS INHIBITOR COMPOUND” (ADLAI NORTYE BIOPHARMA CO., LTD., priority 2022, published 2026).

One experiment relates to AsPC-1 (G12D). As to the kind of experiment: In vitro cell proliferation inhibition test (CellTiter-Glo), AsPC-1. Type of experiment: cell-based. The following applies: Homo sapiens, ASPC1, AsPC-1 pancreas cell line, KRAS (p.G12D), 72 h co-incubation. The text has this: (§1) Test Example 1: In Vitro Cell Proliferation Inhibition Test
(§2) Due to the diversity of RAS mutations and in order to evaluate the activity of compounds in different RAS mutation cell lines, we selected KRAS^WT, KRAS^G12C, KRAS^G12D, KRAS^G12V and BRAF mutation cell lines (see the table below) for in vitro activity evaluation and screening of compounds.
(§3) Protocol: CellTiter-Glo® Cell Luminescent Viability Assay (Promega)
(§4) According to the doubling time of different cell lines, different numbers of cells (1000-5000 cells/well) were seeded in 96-well plates containing 180 μl of corresponding culture medium and cultured overnight in a cell culture incubator at 37° C. with 5% CO2. On the second day, the test compound was pre-diluted 3-fold with culture medium, with the highest concentration being 100 μM, for a total of 10 concentration gradients; then 20 μl of culture medium containing different concentrations of the compound was added to the cells in the 96-well plate to ensure that the final concentration of the compound was up to 10 μM, with 10 concentration gradients of 3-fold dilution. After the cells and compounds were co-incubated for 72 h, the 96-well plate was removed from the incubator and equilibrated at room temperature for 30 min. Then, 25 μl of CellTiter-Glo® Reagent was added to each well and mixed thoroughly. The mixture was incubated at room temperature for 10 min, and then 100 μl of the sample was transferred to a white 96-well plate (OptiPlate™-96, PerkinElmer). The […] signal value was read using a multi-function microplate reader (SpectraMax® i3x, Molecular devices). The signal values were then standardized, and the curve was fitted using a four-parameter regression equation to calculate the half maximal inhibitory concentration (IC50) of the compound on the cell line.
(In general: Cellular ATP, detected with luciferase, serves as a proxy for viable cell number.)

Another experiment concerns SW480 (G12V). As to the kind of experiment: In vitro cell proliferation inhibition test (CellTiter-Glo), SW480. The experiment is classed as cell-based. The settings on record: Homo sapiens, SW480 colon cell line, KRAS (p.G12V), 72 h co-incubation.
Text: as §1, §2, §3, §4

The term IC50 denotes the midpoint of a concentration-inhibition curve. Consider `CCn1c(-c2cc(-c3cccc(CN(C)C)c3)cnc2[C@H](C)OC)c2c3cc(ccc31)-c1csc(n1)C[C@H](NC(=O)[C@H]1[C@H](C)[C@@H]1C)C(=O)N1CCC[C@H](N1)C(=O)OCC(C)(C)C2` (atropisomer, axis not shown) [Compound 4, (1r,2R,3S)-N-((6^3S,4S,Z)-1^2-(5-(3-((dimethylamino)methyl)phenyl)-2-((S)-1-methoxyethyl)pyridin-3-yl)-1^1-ethyl-10,10-dimethyl-5,7-dioxo-6^1,6^2,6^3,6^4,6^5,6^6-hexahydro-1^1H-8-oxa-2(4,2)-thiazola-1(5,3)-indola-6(1,3)-pyridazinacycloundecaphane-4-yl)-2,3-dimethylcyclopropane-1-carboxamide], for which the IC50 was 2.6 nM in the experiment on AsPC-1 (G12D) and 1.6 nM in the experiment on SW480 (G12V).

`CCn1c(-c2cc(-c3ccc(CN4CCOCC4)nc3)cnc2[C@H](C)OC)c2c3cc(ccc31)-c1csc(n1)C[C@H](NC(=O)[C@H]1C[C@@H]1C)C(=O)N1CCC[C@H](N1)C(=O)OCC(C)(C)C2` (atropisomer, axis not shown) [Compound 5, (1S,2S)-N-((6^3S,4S,Z)-1^1-ethyl-1^2-(6-((S)-1-methoxyethyl)-6′-(morpholinomethyl)-[3,3′-bipyridin]-5-yl)-10,10-dimethyl-5,7-dioxo-6^1,6^2,6^3,6^4,6^5,6^6-hexahydro-1^1H-8-oxa-2(4,2)-thiazola-1(5,3)-indola-6(1,3)-pyridazinacycloundecaphane-4-yl)-2-methylcyclopropane-1-carboxamide]: the IC50 with AsPC-1 (G12D) was found to be 6 nM; in the experiment with SW480 (G12V), 10 nM.

Regarding `CCn1c(-c2cc(-c3ccc(CN4CC[C@@H](F)C4)cc3)cnc2[C@H](C)OC)c2c3cc(ccc31)-c1csc(n1)C[C@H](NC(=O)[C@H]1C[C@@H]1C)C(=O)N1CCC[C@H](N1)C(=O)OCC(C)(C)C2` (atropisomer, axis not shown) [Compound 6, (1S,2S)-N-((6^3S,4S,Z)-1^1-ethyl-1^2-(5-(4-(((R)-3-fluoropyrrolidin-1-yl)methyl)phenyl)-2-((S)-1-methoxyethyl)pyridin-3-yl)-10,10-dimethyl-5,7-dioxo-6^1,6^2,6^3,6^4,6^5,6^6-hexahydro-1^1H-8-oxa-2(4,2)-thiazola-1(5,3)-indola-6(1,3)-pyridazinacycloundecaphane-4-yl)-2-methylcyclopropane-1-carboxamide], the IC50 in the experiment on AsPC-1 (G12D) stood at 13 nM; in the experiment on SW480 (G12V), 23 nM.

Turning to `CCn1c(-c2cc(-c3ccc(CN4CCC(F)(F)CC4)cc3)cnc2[C@H](C)OC)c2c3cc(ccc31)-c1csc(n1)C[C@H](NC(=O)[C@H]1C[C@@H]1C)C(=O)N1CCC[C@H](N1)C(=O)OCC(C)(C)C2` (atropisomer, axis not shown) [Compound 7, (1S,2S)-N-((6^3S,4S,Z)-1^2-(5-(4-((4,4-difluoropiperidin-1-yl)methyl)phenyl)-2-((S)-1-methoxyethyl)pyridin-3-yl)-1^1-ethyl-10,10-dimethyl-5,7-dioxo-6^1,6^2,6^3,6^4,6^5,6^6-hexahydro-1^1H-8-oxa-2(4,2)-thiazola-1(5,3)-indola-6(1,3)-pyridazinacycloundecaphane-4-yl)-2-methylcyclopropane-1-carboxamide], the IC50 was determined as 128 nM in the experiment on AsPC-1 (G12D) and 159 nM with SW480 (G12V).

`CCn1c(-c2cc(-c3ccc(CN4CCN(C)CC4)cc3)cnc2[C@H](C)OC)c2c3cc(ccc31)-c1csc(n1)C[C@H](NC(=O)[C@H]1C[C@@H]1C)C(=O)N1CCC[C@H](N1)C(=O)OCC(C)(C)C2` (atropisomer, axis not shown) [Compound 8, (1S,2S)-N-((6^3S,4S,Z)-1^1-ethyl-1^2-(2-((S)-1-methoxyethyl)-5-(4-((4-methylpiperazin-1-yl)methyl)phenyl)pyridin-3-yl)-10,10-dimethyl-5,7-dioxo-6^1,6^2,6^3,6^4,6^5,6^6-hexahydro-1^1H-8-oxa-2(4,2)-thiazola-1(5,3)-indola-6(1,3)-pyridazinacycloundecaphane-4-yl)-2-methylcyclopropane-1-carboxamide]: the values for the IC50 with AsPC-1 (G12D) and in the experiment with SW480 (G12V) were 0.7 nM and 1.4 nM, respectively.

For `CCn1c(-c2cc(-c3cccc(CN4CCOCC4)c3)cnc2[C@H](C)OC)c2c3cc(ccc31)-c1csc(n1)C[C@H](NC(=O)[C@H]1C[C@@H]1C)C(=O)N1CCC[C@H](N1)C(=O)OCC(C)(C)C2` (atropisomer, axis not shown) [Compound 9, (1S,2S)-N-((6^3S,4S,Z)-1^1-ethyl-1^2-(2-((S)-1-methoxyethyl)-5-(3-(morpholinomethyl)phenyl)pyridin-3-yl)-10,10-dimethyl-5,7-dioxo-6^1,6^2,6^3,6^4,6^5,6^6-hexahydro-1^1H-8-oxa-2(4,2)-thiazola-1(5,3)-indola-6(1,3)-pyridazinacycloundecaphane-4-yl)-2-methylcyclopropane-1-carboxamide], the concentration for half-maximal inhibition (IC50) was determined as 3.5 nM in the experiment with AsPC-1 (G12D) and 18 nM in the experiment on SW480 (G12V).

Take `CCn1c(-c2cc(-c3ccc4c(c3)CN(C)CC4)cnc2[C@H](C)OC)c2c3cc(ccc31)-c1csc(n1)C[C@H](NC(=O)[C@H]1C[C@@H]1C)C(=O)N1CCC[C@H](N1)C(=O)OCC(C)(C)C2` (atropisomer, axis not shown) [Compound 10, (1S,2S)-N-((6^3S,4S,Z)-1^1-ethyl-1^2-(2-((S)-1-methoxyethyl)-5-(2-methyl-1,2,3,4-tetrahydroisoquinolin-7-yl)pyridin-3-yl)-10,10-dimethyl-5,7-dioxo-6^1,6^2,6^3,6^4,6^5,6^6-hexahydro-1^1H-8-oxa-2(4,2)-thiazola-1(5,3)-indola-6(1,3)-pyridazinacycloundecaphane-4-yl)-2-methylcyclopropane-1-carboxamide]: the IC50 in the experiment with AsPC-1 (G12D) came out at 18 nM; with SW480 (G12V), 0.5 nM.

Regarding `CCn1c(-c2cc(-c3cc(CN4CCOCC4)ccn3)cnc2[C@H](C)OC)c2c3cc(ccc31)-c1csc(n1)C[C@H](NC(=O)[C@H]1C[C@@H]1C)C(=O)N1CCC[C@H](N1)C(=O)OCC(C)(C)C2` (atropisomer, axis not shown) [Compound 11, (1S,2S)-N-((6^3S,4S,Z)-1^1-ethyl-1^2-(6′-((S)-1-methoxyethyl)-4-(morpholinomethyl)-[2,3′-bipyridin]-5′-yl)-10,10-dimethyl-5,7-dioxo-6^1,6^2,6^3,6^4,6^5,6^6-hexahydro-1^1H-8-oxa-2(4,2)-thiazola-1(5,3)-indola-6(1,3)-pyridazinacycloundecaphane-4-yl)-2-methylcyclopropane-1-carboxamide], the figures for the half-maximal inhibitory concentration (IC50) in the experiment with AsPC-1 (G12D) and in the experiment with SW480 (G12V) were 2.1 nM and 3.2 nM, respectively.

Consider `CCn1c(-c2cc(-c3ccc(CN4CCOCC4)cn3)cnc2[C@H](C)OC)c2c3cc(ccc31)-c1csc(n1)C[C@H](NC(=O)[C@H]1C[C@@H]1C)C(=O)N1CCC[C@H](N1)C(=O)OCC(C)(C)C2` (atropisomer, axis not shown) [Compound 12, (1S,2S)-N-((6^3S,4S,Z)-1^1-ethyl-1^2-(6′-((S)-1-methoxyethyl)-5-(morpholinomethyl)-[2,3′-bipyridin]-5′-yl)-10,10-dimethyl-5,7-dioxo-6^1,6^2,6^3,6^4,6^5,6^6-hexahydro-1^1H-8-oxa-2(4,2)-thiazola-1(5,3)-indola-6(1,3)-pyridazinacycloundecaphane-4-yl)-2-methylcyclopropane-1-carboxamide], for which the IC50 in the experiment on AsPC-1 (G12D) turned out to be 16 nM; in the experiment on SW480 (G12V), 6.6 nM.

In the case of `CCn1c(-c2cc(-c3cnn(CCN4CCOCC4)c3)cnc2[C@H](C)OC)c2c3cc(ccc31)-c1csc(n1)C[C@H](NC(=O)[C@H]1C[C@@H]1C)C(=O)N1CCC[C@H](N1)C(=O)OCC(C)(C)C2` (atropisomer, axis not shown) [Compound 15, (1S,2S)-N-((6^3S,4S,Z)-1^1-ethyl-1^2-(2-((S)-1-methoxyethyl)-5-(1-(2-morpholinoethyl)-1H-pyrazol-4-yl)pyridin-3-yl)-10,10-dimethyl-5,7-dioxo-6^1,6^2,6^3,6^4,6^5,6^6-hexahydro-1^1H-8-oxa-2(4,2)-thiazola-1(5,3)-indola-6(1,3)-pyridazinacycloundecaphane-4-yl)-2-methylcyclopropane-1-carboxamide], the IC50 in the experiment with AsPC-1 (G12D) came out at 3 nM; in the experiment with SW480 (G12V), 6 nM.

`CCn1c(-c2cc(-c3cnn([C@@H]4CCN(C)C4)c3)cnc2[C@H](C)OC)c2c3cc(ccc31)-c1csc(n1)C[C@H](NC(=O)[C@H]1C[C@@H]1C)C(=O)N1CCC[C@H](N1)C(=O)OCC(C)(C)C2` (atropisomer, axis not shown) [Compound 16, (1S,2S)-N-((6^3S,4S,Z)-1^1-ethyl-1^2-(2-((S)-1-methoxyethyl)-5-(1-((R)-1-methylpyrrolidin-3-yl)-1H-pyrazol-4-yl)pyridin-3-yl)-10,10-dimethyl-5,7-dioxo-6^1,6^2,6^3,6^4,6^5,6^6-hexahydro-1^1H-8-oxa-2(4,2)-thiazola-1(5,3)-indola-6(1,3)-pyridazinacycloundecaphane-4-yl)-2-methylcyclopropane-1-carboxamide]: the IC50 in the experiment with AsPC-1 (G12D) was determined as 1.6 nM; in the experiment on SW480 (G12V) it was 7.9 nM.
